According to US6602914B2, “Compounds and methods for the inhibition of the expression of VCAM-1” (AtheroGenics, Inc., priority 1997, dated 2003):

These molecules were tested on ApoB/HepG2 (assay: Lipid Screen & IC50 Determination Protocol: ApoB ELISA of HEPG2 media). Conditions: HEPG2, 24 hours; bare number = IC50; NE not defined in the patent; read-out: ApoB/HepG2 IC50 or % inhibition at [μM]: IC50.
Format: cell-based, human
Experimental: HEPG2 cell was started in 10 ml of MEM, 10% FBS, 1 mM Sodium Pyruvate. The cells were incubated in a tissue culture incubator. The cells were split into 4×96-wells plate in MEM, 10% FBS, 1 mM Sodium Pyruvate and allowed to grow to about 50% confluency and then removed.
The cells were treated with the desired concentration of compounds in 100 μl DMEM, 1% RSA for 24 hours. The compounds are dissolved in DMSO.
On the same day, 4×96-wells NuncImmunoSorb plate is coated with 100 μl of mouse anti-human ApoB monoclonal 1D1 (1:1000 dilution in 1×PBS, pH 7.4). The coating is allowed overnight.
The coated plate is washed 3 times with 1×PBS, pH 7.4, −0.05% Tween 20. 100 μl of the standards is added to the selected wells. ApoB standards are prepared at 6.25, 3.12, 1.56, 0.78, 0.39 ng, and each concentration is done in triplicates. For samples:
90 μl of 1×PBS, pH 7.4, −0.05% Tween 20 is added to each well corresponding to the sample. 10 μl of media is transferred from the treated HEPG2 plates to the ApoB ELISA plate. The plate is incubated at room temperature for 2 hours, rocking gently.
Wash the coated plate 3× with 1×PBS, pH 7.4, −0.05% Tween 20. Add 100 μl of sheep anti-human ApoB polyclonal from Boehringer Mannheim. (1:2000 dilution in 1×PBS, pH 7.4, −0.05% Tween 20) from Boehringer Mannheim. Incubate at room temperature for 1 hour, rocking gently. Wash the coated plate 3× with 1×PBS, pH 7.4, −0.05% Tween 20. Add 100 μl of rabbit anti-sheep IgG (1:2000 dilution in 1×PBS, pH 7.4, −0.05% Tween 20). Incubate at room temperature for 1 hour, rocking gently. Wash the coated plate 3× with 1×PBS, pH 7.4, −0.05% Tween 20. Add 100 μl of substrate (10 ml of distilled water, 100 μl of TMB (10 mg/ml), and 1 μl of hydrogen peroxide). Allow color to emerge and stop reaction with 25 ul of 8N sulfuric acid. Wells are read with MicroPlate Reader @ […]. Graph accumulation of ApoB in media as a percentage of control for each sample and their concentration. A determination of IC50 is obtained from the graph.
The degree of inhibition of the compounds of formulas (I) and (II) was determined by the assays described in Examples 62-64.
In the case of COc1c(C(C)(C)C)cc(SCc2ccc(C(F)(F)F)cc2)cc1C(C)(C)C [2,6-di-tert-butyl-1-methoxy-4-thio(4′-trifluoromethyl)benzyl)benzene], the IC50 is reported as under 10 µM. Work on CCCCC(OC(C)=O)Sc1cc(C(C)(C)C)c(O)c(C(C)(C)C)c1 (stereo not drawn) [2,6-di-tert-butylthio((1′-(acetoxy))pentyl)phenol] yielded an IC50 of 30 µM.

Same assay, conditions: Homo sapiens; at 15 μM; HEPG2, 24 hours
In the case of CC(C)(Sc1cc(C(C)(C)C)c(O)c(C(C)(C)C)c1)Sc1cc(C(C)(C)C)c(OCC(O)CO)c(C(C)(C)C)c1 (stereo not drawn) [1,2-Propanediol, 3-[4-[[1-[[3,5-bis(1,1-dimethylethyl)-4-hydroxyphenyl]thio]-1-methylethyl]thio]-2,6-bis(1,1-dimethylethyl)phenoxy]-], the inhibition at 15 µM is reported as 40%. For CC(C)(Sc1cc(C(C)(C)C)c(O)c(C(C)(C)C)c1)Sc1cc(C(C)(C)C)c(OC(=O)c2ccc([N+](=O)[O-])o2)c(C(C)(C)C)c1 [2-Furancarboxylic acid, 5-nitro-, 4-[[1-[[3,5-bis(1,1-dimethylethyl)-4-hydroxyphenyl]thio]-1-methylethyl]thio]-2,6-bis(1,1-dimethylethyl)phenyl ester], the inhibition at 15 µM was 17%. CC(C)(Sc1cc(C(C)(C)C)c(O)c(C(C)(C)C)c1)Sc1cc(C(C)(C)C)c(OCCCC(=O)O)c(C(C)(C)C)c1 [Butanoic acid, 4-[4-[[1-[[3,5-bis(1,1-dimethylethyl)4-hydroxyphenyl]thio]-1-methylethyl]thio]-2,6-bis(1,1-dimethylethyl)phenoxy]-] was tested, and the inhibition at 15 µM was 77%. For Cc1cc(SC(C)(C)Sc2cc(C(C)(C)C)c(O)c(C(C)(C)C)c2)cc(C)c1OCCCC(=O)O [Butanoic acid, 4-[4-[[1-[[3,5-bis(1,1-dimethylethyl)-4-hydroxyphenyl]thio]-1-methylethyl]thio]2,6-dimethylphenoxy]-], the inhibition at 15 µM was 41%. In the case of CC(C)(Sc1ccc(OCCCC(=O)O)cc1)Sc1cc(C(C)(C)C)c(O)c(C(C)(C)C)c1 [Butanoic acid, 4-[4-[[1-[[3,5-bis(1,1-dimethylethyl)-4-hydroxyphenyl]thio]-1-methylethyl]thio]phenoxy]-], the inhibition at 15 µM is reported as 47%. CC(C)(CO)CC(=O)Oc1c(C(C)(C)C)cc(SC(C)(C)Sc2cc(C(C)(C)C)c(O)c(C(C)(C)C)c2)cc1C(C)(C)C [Butanoic acid, 4-hydroxy-3,3-dimethyl-, 4-[[1-[[3,5-bis(1,1-dimethylethyl)-4-hydroxyphenyl]thio]-1-methylethyl]thio]-2,6-bis(1,1-dimethylethyl)phenyl ester] showed an inhibition at 15 µM of 90%. CC(C)(Sc1cc(C(C)(C)C)c(O)c(C(C)(C)C)c1)Sc1cc(C(C)(C)C)c(OCC(=O)N[C@@H](CCC(=O)O)C(=O)O)c(C(C)(C)C)c1 [Glutamic acid, N-[[4-[[1-[[3,5-bis(1,1-dimethylethyl)-4-hydroxyphenyl]thio]-1-methylethyl]thio]-2,6-bis(1,1-dimethylethyl)phenoxy]acetyl]-] was tested, and the inhibition at 15 µM was 94%.

Same assay, conditions: at 1 μM; HEPG2, 24 hours
“1,2,3-Butanetriol, 4-[4-[[1-[[3,5-bis(1,1-dimethylethyl)-4-hydroxyphenyl]thio]=1-methylethyl]thio]-2,6-bis(1,1-dimethylethyl)phenoxy]-2-hydroxypropyl]-” was tested, and the “ApoB/HepG2 % inhibition at [μM]” value was 6% at 1.

Same assay, conditions: at 15 μM; HEPG2, 24 hours
For COc1c(C(C)(C)C)cc(SC(C)(C)Sc2cc(C(C)(C)C)c(OC(=O)CCC(=O)O)c(C(C)(C)C)c2)cc1C(C)(C)C [Butanedioic acid, mono[4-[[1-[[3,5-bis(1,1-dimethylethyl)-4-methoxyphenyl]thiol]1-methylethyl]thiol-2,6-bis(1,1-dimethylethyl)phenyl] ester], the “ApoB/HepG2 % inhibition at [μM]” value was 89% at 15. CC(C)(Sc1cc(C(C)(C)C)c(O)c(C(C)(C)C)c1)Sc1cc(C(C)(C)C)c(OC(=O)CCCO)c(C(C)(C)C)c1 [Butanoic acid, 4-hydorxy-, 4-[[1-[[3,5-bis(1,1-dimethylethyl)-4-hydroxyphenyl]thio]-1-methylethyl]thio]-2,6-bis(1,1-dimethylethyl)phenyl ester] was tested, and the “ApoB/HepG2 % inhibition at [μM]” value was 81% at 15.
